≈ marks a conversion by molar mass, not a printed value. Calls of active or inactive are those of the source. The calls are words filed in the database; no cut-off is given here.
Legend:
Pseudomonas aeruginosa = assay: Antibacterial activity against Pseudomonas aeruginosa assessed as inhibition of bacterial growth incubated for 24 hrs by broth microdilution method; format: functional
Escherichia coli = assay: Antibacterial activity against Escherichia coli assessed as inhibition of bacterial growth incubated for 24 hrs by broth microdilution method; format: functional
Staphylococcus aureus [1] = assay: Antibacterial activity against methicillin-resistant Staphylococcus aureus N315 assessed as inhibition of bacterial growth incubated for 24 hrs by broth microdilution method; format: functional; conditions: N315, 24 h
Staphylococcus aureus [2] = assay: Antibacterial activity against Staphylococcus aureus ATCC 29213 assessed as induction of bacterial killing at 8 times MIC incubated for 0.5 hrs followed by re-plating of cultures and measured after 24 hrs by time kill study relative to control; format: functional
Staphylococcus aureus [3] = assay: Induction of cytoplasmic membrane permeabilization in methicillin-resistant Staphylococcus aureus NCTC 10442 at 1 to 8 times MIC by SYTOX green dye based fluorescence assay; format: functional, organism-based
Staphylococcus aureus [4] = assay: Antibacterial activity against Staphylococcus aureus ATCC 29213 assessed as bacterial cell killing at 4 times MIC incubated for 1 hrs followed by re-plating of cultures and measured after 24 hrs by time kill study relative to control; format: functional
Staphylococcus aureus [5] = assay: Antibacterial activity against methicillin-resistant Staphylococcus aureus NCTC 10442 assessed as inhibition of bacterial growth incubated for 24 hrs by broth microdilution method; format: functional; conditions: NCTC 10442, 24 h
Staphylococcus aureus [6] = assay: Induction of bacterial cell membrane integrity loss in Staphylococcus aureus ATCC 29213 incubated for 2 hrs propidium iodide and SYTO9 dye based LIVE/DEAD bacterial viability assay; format: functional, organism-based
[7] = Cytotoxicity in human MDA-MB-231 cells assessed as cell viability at 16 times MIC incubated for 24 hrs by CCK8 assay relative to control; format: cell-based; conditions: read-out: Activity
Staphylococcus aureus [8] = assay: Induction of cytoplasmic membrane permeabilization in Staphylococcus aureus ATCC 29213 at 1 to 8 times MIC by SYTOX green dye based fluorescence assay; format: functional, organism-based
[9] = Induction of hemolysis in rabbit RBC incubated for 1 hr; format: cell-based, Oryctolagus cuniculus, Erythrocyte; conditions: rabbit red blood cells (erythrocytes)
[10] = Cytotoxicity in mouse corneal epithelial cells assessed as cell viability at 16 times MIC incubated for 24 hrs by CCK8 assay relative to control; format: cell-based; conditions: read-out: Activity
Staphylococcus aureus [11] = assay: Resistance index, ratio of MIC for antibacterial activity against Staphylococcus aureus ATCC 29213 passed over 19 cycles in presence of compound for period of 19 consecutive days by broth microdilution method to MIC for antibacterial activity against Staphylococcus aureus ATCC 29213; format: functional
Staphylococcus aureus [12] = assay: Antibacterial activity against Staphylococcus aureus ATCC 29213 assessed as induction of bacterial killing at 4 times MIC incubated for 1 hrs followed by re-plating of cultures and measured after 24 hrs by time kill study relative to control; format: functional
Staphylococcus aureus [13] = assay: Antibacterial activity against Staphylococcus aureus ATCC 29213 assessed as inhibition of bacterial growth incubated for 24 hrs by broth microdilution method; format: functional; conditions: ATCC 29213, 24 h
Staphylococcus aureus [14] = assay: Antibacterial activity against Staphylococcus aureus ATCC 29213 assessed as suppression of bacterial re-growth at 4 to 8 times MIC incubated for 0.5 to 24 hrs followed by re-plating of cultures and measured after 24 hrs by time kill study relative to control; format: functional, organism-based
[15] = Cytotoxicity in human MDA-MB-231 cells assessed as reduction in cell viability incubated for 24 hrs by CCK8 assay; format: cell-based
Staphylococcus aureus [16] = assay: Induction of cell surface disruption in Staphylococcus aureus ATCC 29213 at 8 times MIC incubated for 2 hrs by scanning electron microscopy; format: functional, organism-based
Staphylococcus aureus [17] = assay: Antibacterial activity against Staphylococcus aureus ATCC 29213 assessed as induction of bacterial killing at 4 times MIC incubated for 8 hrs followed by re-plating of cultures and measured after 24 hrs by time kill study relative to control; format: functional

| Structure (SMILES) | MIC (Pseudomonas aeruginosa) | MIC (Escherichia coli) | MIC (Staphylococcus aureus [1]) | LCK (Staphylococcus aureus [2]) | Activity (Staphylococcus aureus [3]) | Activity (Staphylococcus aureus [4]) | MIC (Staphylococcus aureus [5]) | Activity (Staphylococcus aureus [6]) | viability at 24 h, 16 times MIC [7] | Activity (Staphylococcus aureus [8]) | HC50 at 1 h [9] | viability at 24 h, 16 times MIC [10] | Ratio (Staphylococcus aureus [11]) | LCK (Staphylococcus aureus [12]) | MIC (Staphylococcus aureus [13]) | Activity (Staphylococcus aureus [14]) | CC50 at 24 h [15] | Activity (Staphylococcus aureus [16]) | LCK (Staphylococcus aureus [17]) |
| --- | --- | --- | --- | --- | --- | --- | --- | --- | --- | --- | --- | --- | --- | --- | --- | --- | --- | --- | --- |
| COC(=O)[C@H](CCCNC(=N)N)NC(=O)COc1c(-c2ccc(OCC=C(C)C)cc2)oc2cc(OCC=C(C)C)cc(O)c2c1=O | inactive | inactive | 2.4 µM (≈ 1.56 µg/mL) | 3.78 | Active | >=99.9% | 4.8 µM (≈ 3.12 µg/mL) | Active | 67.3% | Active | 107 µM | 62.1% | <=4 | 3.19 | 4.8 µM (≈ 3.12 µg/mL) | Active | > 50 µg/mL | Active |  |
| CN[C@H](CC(C)C)C(=O)N[C@H]1C(=O)N[C@@H](CC(N)=O)C(=O)N[C@H]2C(=O)N[C@H]3C(=O)N[C@H](C(=O)N[C@H](C(=O)O)c4cc(O)cc(O)c4-c4cc3ccc4O)[C@H](O)c3ccc(c(Cl)c3)Oc3cc2cc(c3O[C@@H]2O[C@H](CO)[C@@H](O)[C@H](O)[C@H]2O[C@H]2C[C@](C)(N)[C@H](O)[C@H](C)O2)Oc2ccc(cc2Cl)[C@H]1O [VANCOMYCIN] |  |  | 1.08 µM (≈ 1.57 µg/mL) |  |  |  | 1.08 µM (≈ 1.57 µg/mL) |  |  |  |  |  |  |  | 0.54 µM (≈ 0.783 µg/mL) |  |  |  | 1.18 |

Source: ChEMBL document CHEMBL4602730, “In Vitro and in Vivo Evaluation of Membrane-Active Flavone Amphiphiles: Semisynthetic Kaempferol-Derived Antimicrobials against Drug-Resistant Gram-Positive Bacteria” (J Med Chem, 2020)
